Patent US9486398B2, “Composition” (J-OIL MILLS, INC., priority 2012, dated 2016)
Entries after “also recorded” stand apart in the source; their conditions may differ.

Test system: hairless mice Hos:HR1
Assay: Stratum corneum water-retaining function (moisture in the keratin, corneometer, back skin)
Type: in vivo
Details: intragastric once a day for 28 days, menaquinone-7 10 mg/kg, collagen hydrolysate 80 mg/kg, soyasapogenol 50 mg/kg
Method: In addition to the reference diet, the test substances shown in Table 6 were administered to the study groups in Examples and Comparative Examples. By dissolving the test substances in a 0.5% carboxymethyl cellulose sodium solution (hereinafter referred to as CMC-Na solution), the composition (skin function improving agent) was prepared.
Forty two hairless mice Hos:HR1 (male, 5-week old) were prepared. Through the 1-week acclimation period and the test period, the mice were freely fed a reference diet (product name: CRF-1, manufactured by Oriental Yeast Co., Ltd.) and water. The insolation condition was set to day and night every 12 hours. After the acclimation period, grouping of 6 mice/group was performed so that the body weight between groups was homogenous.
Continuous and forced intragastric administration of the above composition was performed to the mice once a day for 28 days using a stomach tube. The reference diet and 0.05 mL per 10 g of body weight of a 0.5% CMC-Na solution were administered to the control group.
The keratin usually contains 20% to 30% of water. […] By measuring the moisture in the keratin, the stratum corneum water-retaining function (i.e., skin moisture-retaining function) of a skin function improving agent can be evaluated. […]

## CC(C)=CCC/C(C)=C/CC/C(C)=C/CC/C(C)=C/CC/C(C)=C/CC/C(C)=C/CC/C(C)=C/CC1=C(C)C(=O)c2ccccc2C1=O [Comparative Example 1, menaquinone-7]
  keratin moisture fluctuation value (moisture in the keratin, day 28 minus day before administration): no function of keratin water retention; also recorded: no stratum corneum water-retaining function
Listed as menaquinone-7
  keratin moisture fluctuation value (moisture in the keratin, day 28 minus day before administration): does not exert the keratin water-retaining function; also recorded: does not exert the stratum corneum water-retaining function
